How the values were obtained:
Type in all cases: biochemical
[1] = biological target: T1, EPHB2 (Homo sapiens, UniProt P29323); assay: Kinome profiling EPHB2; conditions: read-out: Inhibitory activity EPHB2; for inhibition at 0.1 µM: 100 nM
T1 sequence (P29323 19-1055): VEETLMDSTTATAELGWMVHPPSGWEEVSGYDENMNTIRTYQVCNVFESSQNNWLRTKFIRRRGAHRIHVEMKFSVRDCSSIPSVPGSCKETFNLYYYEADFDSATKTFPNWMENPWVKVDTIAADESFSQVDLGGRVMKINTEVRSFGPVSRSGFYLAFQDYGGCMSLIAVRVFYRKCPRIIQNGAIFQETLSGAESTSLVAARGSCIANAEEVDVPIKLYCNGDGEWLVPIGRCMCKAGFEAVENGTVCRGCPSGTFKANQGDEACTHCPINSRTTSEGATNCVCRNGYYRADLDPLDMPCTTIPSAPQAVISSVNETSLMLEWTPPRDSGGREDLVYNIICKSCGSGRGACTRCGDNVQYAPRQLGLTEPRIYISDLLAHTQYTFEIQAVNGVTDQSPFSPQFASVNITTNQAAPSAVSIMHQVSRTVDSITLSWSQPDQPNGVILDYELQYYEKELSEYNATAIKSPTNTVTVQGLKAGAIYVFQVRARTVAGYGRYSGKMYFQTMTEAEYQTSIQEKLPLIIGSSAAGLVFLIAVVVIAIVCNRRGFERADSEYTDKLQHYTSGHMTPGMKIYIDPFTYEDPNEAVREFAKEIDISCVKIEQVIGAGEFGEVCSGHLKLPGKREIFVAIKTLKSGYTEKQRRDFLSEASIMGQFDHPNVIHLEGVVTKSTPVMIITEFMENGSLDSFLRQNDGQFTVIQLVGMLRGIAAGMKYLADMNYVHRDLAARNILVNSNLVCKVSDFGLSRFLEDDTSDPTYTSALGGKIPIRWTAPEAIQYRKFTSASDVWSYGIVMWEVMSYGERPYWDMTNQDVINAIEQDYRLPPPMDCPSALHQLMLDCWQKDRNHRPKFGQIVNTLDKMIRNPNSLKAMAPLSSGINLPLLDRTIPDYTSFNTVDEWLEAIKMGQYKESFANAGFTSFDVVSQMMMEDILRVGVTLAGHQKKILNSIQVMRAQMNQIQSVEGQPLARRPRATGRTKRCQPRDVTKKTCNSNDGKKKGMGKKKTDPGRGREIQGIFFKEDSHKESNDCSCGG
Experimental: (§1) . The kinome-wide selectivity was determined following the methods previously reported by Mohedas et al., ACS Chem Biol 2013, 8, 1291-1302 and Sanvitale et al., PLoS One 2013, 8, e62721.

[2] = biological target: KDR (Homo sapiens, UniProt P35968); assay: Kinome profiling KDR; conditions: read-out: Inhibitory activity KDR; for inhibition at 0.1 µM: 100 nM
KDR, sequence (P35968 20-1356): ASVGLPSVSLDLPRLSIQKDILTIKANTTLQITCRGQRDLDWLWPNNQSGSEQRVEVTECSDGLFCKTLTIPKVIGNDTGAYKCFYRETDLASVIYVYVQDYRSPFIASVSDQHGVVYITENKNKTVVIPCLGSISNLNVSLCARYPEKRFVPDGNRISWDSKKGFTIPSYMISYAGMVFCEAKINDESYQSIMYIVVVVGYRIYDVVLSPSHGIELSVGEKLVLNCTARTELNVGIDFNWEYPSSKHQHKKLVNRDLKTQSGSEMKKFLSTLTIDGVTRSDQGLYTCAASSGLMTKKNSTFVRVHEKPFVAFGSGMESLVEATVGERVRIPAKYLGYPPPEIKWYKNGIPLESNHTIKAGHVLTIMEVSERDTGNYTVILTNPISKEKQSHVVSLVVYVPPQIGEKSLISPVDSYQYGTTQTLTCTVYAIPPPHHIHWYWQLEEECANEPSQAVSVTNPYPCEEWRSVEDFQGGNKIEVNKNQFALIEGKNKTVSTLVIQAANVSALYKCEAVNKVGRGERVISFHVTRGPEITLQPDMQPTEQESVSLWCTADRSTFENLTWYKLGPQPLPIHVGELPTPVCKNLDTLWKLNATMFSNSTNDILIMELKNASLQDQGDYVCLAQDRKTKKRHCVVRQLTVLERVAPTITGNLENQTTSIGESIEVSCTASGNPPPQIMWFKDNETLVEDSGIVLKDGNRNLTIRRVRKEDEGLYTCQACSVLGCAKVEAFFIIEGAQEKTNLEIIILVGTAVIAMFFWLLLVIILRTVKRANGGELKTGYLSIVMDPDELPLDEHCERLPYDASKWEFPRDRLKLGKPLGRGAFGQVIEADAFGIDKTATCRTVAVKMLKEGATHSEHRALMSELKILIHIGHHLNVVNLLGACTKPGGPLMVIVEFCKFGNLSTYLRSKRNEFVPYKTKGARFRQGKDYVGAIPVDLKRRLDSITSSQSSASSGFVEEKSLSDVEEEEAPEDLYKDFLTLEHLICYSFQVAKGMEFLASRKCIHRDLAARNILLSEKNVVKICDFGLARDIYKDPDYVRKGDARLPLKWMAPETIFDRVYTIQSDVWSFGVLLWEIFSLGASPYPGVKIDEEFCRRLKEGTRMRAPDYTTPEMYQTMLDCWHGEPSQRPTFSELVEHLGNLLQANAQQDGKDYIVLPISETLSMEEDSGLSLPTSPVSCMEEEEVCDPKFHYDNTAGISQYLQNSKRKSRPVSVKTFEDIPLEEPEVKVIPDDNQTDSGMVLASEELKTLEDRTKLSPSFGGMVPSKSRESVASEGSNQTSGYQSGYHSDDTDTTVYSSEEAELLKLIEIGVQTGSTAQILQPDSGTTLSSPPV
Experimental: as §1

[3] = biological target: CK1-γ1 (Homo sapiens, UniProt Q9HCP0); assay: Kinome profiling CK1-γ1; conditions: read-out: Inhibitory activity CK1-γ1; for inhibition at 0.1 µM: 100 nM
CK1-γ1, sequence (Q9HCP0 whole entry): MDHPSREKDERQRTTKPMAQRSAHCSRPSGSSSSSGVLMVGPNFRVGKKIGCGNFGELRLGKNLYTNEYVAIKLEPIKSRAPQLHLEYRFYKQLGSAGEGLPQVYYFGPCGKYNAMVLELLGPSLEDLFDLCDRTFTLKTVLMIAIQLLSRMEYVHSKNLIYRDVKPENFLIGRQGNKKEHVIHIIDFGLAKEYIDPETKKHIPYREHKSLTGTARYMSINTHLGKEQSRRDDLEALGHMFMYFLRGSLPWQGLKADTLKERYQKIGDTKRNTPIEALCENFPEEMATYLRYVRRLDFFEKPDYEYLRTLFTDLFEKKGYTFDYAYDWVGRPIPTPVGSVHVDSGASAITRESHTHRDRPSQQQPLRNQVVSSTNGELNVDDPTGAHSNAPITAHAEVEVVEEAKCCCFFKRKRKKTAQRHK
Experimental: as §1

[4] = biological target: T2, IRAK4 (Homo sapiens, UniProt Q9NWZ3); assay: Kinome profiling IRAK4; conditions: read-out: Inhibitory activity IRAK4; for inhibition at 0.1 µM: 100 nM
T2 sequence (Q9NWZ3 1-460): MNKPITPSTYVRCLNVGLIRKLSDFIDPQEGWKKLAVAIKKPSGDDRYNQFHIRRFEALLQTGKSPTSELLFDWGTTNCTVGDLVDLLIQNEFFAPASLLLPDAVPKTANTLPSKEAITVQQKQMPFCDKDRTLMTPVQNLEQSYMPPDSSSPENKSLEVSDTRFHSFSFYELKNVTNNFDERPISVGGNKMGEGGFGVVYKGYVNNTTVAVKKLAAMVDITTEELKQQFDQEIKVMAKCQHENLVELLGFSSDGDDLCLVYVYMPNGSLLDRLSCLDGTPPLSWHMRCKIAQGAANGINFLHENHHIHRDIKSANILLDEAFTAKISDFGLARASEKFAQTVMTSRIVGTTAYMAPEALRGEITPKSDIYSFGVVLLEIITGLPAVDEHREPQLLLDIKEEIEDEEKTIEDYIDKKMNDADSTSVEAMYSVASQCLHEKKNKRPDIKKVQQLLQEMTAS
Experimental: as §1

[5] = biological target: T3, SGK1 (Homo sapiens, UniProt O00141); assay: Kinome profiling SGK1; conditions: read-out: Inhibitory activity SGK1; for inhibition at 0.1 µM: 100 nM
T3 sequence (O00141 1-431): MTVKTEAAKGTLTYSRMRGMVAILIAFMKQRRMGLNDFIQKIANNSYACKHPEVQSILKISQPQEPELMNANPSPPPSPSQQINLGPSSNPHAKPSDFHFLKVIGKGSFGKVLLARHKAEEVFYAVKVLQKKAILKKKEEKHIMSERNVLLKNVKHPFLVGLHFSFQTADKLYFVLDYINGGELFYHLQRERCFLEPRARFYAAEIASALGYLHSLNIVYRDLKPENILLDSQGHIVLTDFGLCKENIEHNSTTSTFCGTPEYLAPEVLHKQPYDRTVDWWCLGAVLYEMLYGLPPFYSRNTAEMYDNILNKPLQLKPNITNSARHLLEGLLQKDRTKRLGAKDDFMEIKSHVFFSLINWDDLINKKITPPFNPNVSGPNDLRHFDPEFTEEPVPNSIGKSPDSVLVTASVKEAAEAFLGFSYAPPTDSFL
Experimental: as §1

## COc1cc(-c2cc(-c3ccc(N4CCNCC4)cc3)cnc2C)cc(OC)c1OC [Compound 10, 1-(4-(6-methyl-5-(3,4,5-trimethoxyphenyl)pyridin-3-yl)phenyl)piperazine]
[1]
  inhibition at 0.1 µM: 5%
  inhibition at 1 µM: 15%
[2]
  inhibition at 0.1 µM: 0%
  inhibition at 1 µM: 3%
[3]
  inhibition at 0.1 µM: 1%
  inhibition at 1 µM: 6%
[4]
  inhibition at 0.1 µM: 0%
  inhibition at 1 µM: 1%
[5]
  inhibition at 0.1 µM: 2%
  inhibition at 1 µM: 1%

## COc1cc(-c2cc(-c3ccc(N4CCNCC4)cc3)cnc2N)cc(OC)c1OC [Compound 15, 5-(4-(piperazin-1-yl)phenyl)-3-(3,4,5-trimethoxyphenyl)pyridin-2-amine]
[1]
  inhibition at 0.1 µM: 22%
  inhibition at 1 µM: 70%
[2]
  inhibition at 0.1 µM: 6%
  inhibition at 1 µM: 22%
[3]
  inhibition at 0.1 µM: 4%
  inhibition at 1 µM: 17%
[4]
  inhibition at 0.1 µM: 1%
  inhibition at 1 µM: 2%
[5]
  inhibition at 0.1 µM: 3%
  inhibition at 1 µM: 1%
